From patent US7851474B2, “Dipiperazinyl ketones and related analogues” (Neurogen Corporation, priority 2005, dated 2010)
Like-named read-outs stand apart in the source and are kept apart here.

Target: T1, chimeric human H3 receptor (Homo sapiens, UniProt Q9Y5N1, E19D)
T1 construct: made in house; host or cells: Sf9 insect cells (baculovirus infection); P2 membrane preparation
Experiment: Chimeric human H3 receptor GTP binding assay (agonist-stimulated GTP-gamma35S binding, Example 7)
Assay type: biochemical
Settings: read-out: Ki
Outline: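 Sf9 membranes co-expressing the chimeric receptor and heterotrimeric G-protein subunits, 35 μg protein per tube, in pH 7.4 Tris buffer with 10 μM GDP. Test compounds at 10^−10 to 10^−6 M with 1 μM histamine, 60 min at room temperature. Filter-bound GTP-gamma^35S read by scintillation; IC50 from non-linear regression of dose-response curves.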

[1] = Table II "Ki", symbol "*": Ki in the assay of Example 7
[2] = Table II, "*" in Ki, assay of Example 7
[3] = assay of Example 7, "*" in Ki of Table II
[4] = assay of Example 7, symbol * in column headed Ki of Table II
[5] = Table II, assay of Example 7, "*" in Ki
[6] = "*" in Ki of Table II, assay of Example 7

T1 sequence (Q9Y5N1 with tags, fused parts or gaps E19D): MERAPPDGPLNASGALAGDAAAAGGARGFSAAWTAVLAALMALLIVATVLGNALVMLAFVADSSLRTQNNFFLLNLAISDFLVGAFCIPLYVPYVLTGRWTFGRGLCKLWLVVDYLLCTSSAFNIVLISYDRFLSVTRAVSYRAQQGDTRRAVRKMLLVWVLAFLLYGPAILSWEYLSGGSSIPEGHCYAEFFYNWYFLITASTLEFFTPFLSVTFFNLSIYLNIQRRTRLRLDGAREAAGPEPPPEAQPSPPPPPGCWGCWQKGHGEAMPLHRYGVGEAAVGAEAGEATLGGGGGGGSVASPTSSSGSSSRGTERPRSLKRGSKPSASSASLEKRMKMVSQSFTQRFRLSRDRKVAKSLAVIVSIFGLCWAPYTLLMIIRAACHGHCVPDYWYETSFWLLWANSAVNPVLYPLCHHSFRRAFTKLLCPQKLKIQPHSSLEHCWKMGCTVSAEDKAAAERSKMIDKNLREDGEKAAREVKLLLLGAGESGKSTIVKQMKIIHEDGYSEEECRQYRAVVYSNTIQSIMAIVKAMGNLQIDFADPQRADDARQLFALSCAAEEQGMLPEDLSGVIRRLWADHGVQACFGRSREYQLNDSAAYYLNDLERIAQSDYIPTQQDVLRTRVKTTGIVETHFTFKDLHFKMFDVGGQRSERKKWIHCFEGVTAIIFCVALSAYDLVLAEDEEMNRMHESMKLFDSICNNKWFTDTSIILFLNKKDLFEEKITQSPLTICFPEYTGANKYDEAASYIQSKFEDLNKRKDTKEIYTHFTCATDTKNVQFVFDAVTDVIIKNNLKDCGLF

CC(C)c1ccc(-c2ccc(N3CCN(CC(=O)N4CCN(C5CCC5)CC4)CC3)cc2)cc1 [Compound 778, 1-cyclobutyl-4-{[4-(4′-isopropylbiphenyl-4-yl)piperazin-1-yl]acetyl}piperazine]
Ki [1]: < 1 µM

COc1cccc(-c2ccc(N3CCN(CC(=O)N4CCN(C5CCC5)CC4)CC3)cc2)c1 [Compound 758, 1-cyclobutyl-4-{[4-(3′-methoxybiphenyl-4-yl)piperazin-1-yl]acetyl}piperazine]
Ki [2]: < 1 µM

CC(C)N(C)C(=O)c1ccc(N2CCN(CC(=O)N3CCN(C4CCC4)CC3)CC2)nc1 [Compound 1169, 6-{4-[2-(4-cyclobutylpiperazin-1-yl)-2-oxoethyl]piperazin-1-yl}-N-isopropyl-N-methylnicotinamide]
Ki [3]: < 1 µM

CC1CN(c2ccc(C(F)(F)F)cn2)CCN1CC(=O)N1CCN(C2CCCCC2)CC1 (stereo not drawn) [Compound 438, 1-[2-(4-cyclohexylpiperazin-1-yl)-2-oxoethyl]-2-methyl-4-[5-(trifluoromethyl)pyridin-2-yl]piperazine]
Ki [4]: < 1 µM

CCOc1cccc(-c2ccc(N3CCN(CC(=O)N4CCN(C5CCC5)CC4)CC3)nn2)c1 [Compound 1022, 3-{4-[2-(4-cyclobutylpiperazin-1-yl)-2-oxoethyl]piperazin-1-yl}-6-(3-ethoxyphenyl)pyridazine]
Ki [5]: < 1 µM

O=C(CN1CCN(c2cccc(-c3ccc(F)cc3)c2)CC1)N1CCN(C2CCC2)CC1 [Compound 773, 1-cyclobutyl-4-{[4-(4′-fluorobiphenyl-3-yl)piperazin-1-yl]acetyl}piperazine]
Ki [1]: < 1 µM

COC(=O)c1ccc(N2CCN(CC(=O)N3CCN(C4CCC4)CC3)CC2)nc1 [Compound 1202, methyl 6-{4-[2-(4-cyclobutylpiperazin-1-yl)-2-oxoethyl]piperazin-1-yl}nicotinate]
Ki [3]: < 1 µM

CCCN(CCC)C1CCN(CC(=O)N2CCN(C(C)CC)CC2)CC1 (stereo not drawn) [Compound 450, 1-[2-(4-sec-butylpiperazin-1-yl)-2-oxoethyl]-N,N-dipropylpiperidin-4-amine]
Ki [6]: < 1 µM

COc1cc(Br)c(CC(=O)N2CCN(CC(=O)N3CCN(C4CCC4)CC3)CC2)cc1OC [Compound 378, 1-[(2-bromo-4,5-dimethoxyphenyl)acetyl]-4-[2-(4-cyclobutylpiperazin-1-yl)-2-oxoethyl]piperazine]
Ki [4]: < 1 µM

CCOc1ccccc1-c1ccc(N2CCN(CC(=O)N3CCN(C4CCC4)CC3)CC2)nn1 [Compound 1043, 3-{4-[2-(4-cyclobutylpiperazin-1-yl)-2-oxoethyl]piperazin-1-yl}-6-(2-ethoxyphenyl)pyridazine]
Ki [5]: < 1 µM

CC1CCCN1C(=O)c1ccc(N2CCN(CC(=O)N3CCN(C4CCC4)CC3)CC2)nc1 (stereo not drawn) [Compound 652, 1-cyclobutyl-4-[(4-{5-[(2-methylpyrrolidin-1-yl)carbonyl]pyridin-1-yl}piperazin-1-yl)acetyl]piperazine]
Ki [2]: < 1 µM

CCN(C(=O)c1cccc(N2CCN(CC(=O)N3CCN(C4CCC4)CC3)CC2)c1)C(C)C [Compound 1066, 3-{4-[2-(4-cyclobutylpiperazin-1-yl)-2-oxoethyl]piperazin-1-yl}-N-ethyl-N-isopropylbenzamide]
Ki [5]: < 1 µM

O=C(NC1CCN(CC(=O)N2CCN(C3CCC3)CC2)C1)C1CC2CCC1C2 (stereo not drawn) [Compound 1255, N-{1-[2-(4-cyclobutylpiperazin-1-yl)-2-oxoethyl]pyrrolidin-3-yl}bicyclo[2.2.1]heptane-2-carboxamide]
Ki [3]: < 1 µM

CCCNC(=O)c1cccc(N2CCN(CC(=O)N3CCN(C4CCC4)CC3)CC2)c1 [Compound 1072, 3-{4-[2-(4-cyclobutylpiperazin-1-yl)-2-oxoethyl]piperazin-1-yl}-N-propylbenzamide]
Ki [5]: < 1 µM

CCC(C)N1CCN(C(=O)CN2CCN(c3ccc(C(F)(F)F)cc3)CC2)CC1 (stereo not drawn) [Compound 854, 1-sec-butyl-4-({4-[4-(trifluoromethyl)phenyl]piperazin-1-yl}acetyl)piperazine]
Ki [1]: < 1 µM

O=C(CN1CCN(c2cnc(-c3cccc(F)c3F)cn2)CC1)N1CCN(C2CCC2)CC1 [Compound 966, 2-{4-[2-(4-cyclobutylpiperazin-1-yl)-2-oxoethyl]piperazin-1-yl}-5-(2,3-difluorophenyl)pyrazine]
Ki [5]: < 1 µM

O=C(CN1CCN(c2cnc(-c3ccc(Cl)c(C(F)(F)F)c3)cn2)CC1)N1CCN(C2CCC2)CC1 [Compound 914, 2-[4-chloro-3-(trifluoromethyl)phenyl]-5-{4-[2-(4-cyclobutylpiperazin-1-yl)-2-oxoethyl]piperazin-1-yl}pyrazine]
Ki [1]: < 1 µM

COc1ccc(C(C)C)cc1-c1cnc(N2CCN(CC(=O)N3CCN(C4CCC4)CC3)CC2)cn1 [Compound 952, 2-{4-[2-(4-cyclobutylpiperazin-1-yl)-2-oxoethyl]piperazin-1-yl}-5-(5-isopropyl-2-methoxyphenyl)pyrazine]
Ki [5]: < 1 µM

O=C(CN1CCN(c2cnc(-c3ccc(OC(F)(F)F)cc3)cn2)CC1)N1CCN(C2CCC2)CC1 [Compound 934, 2-{4-[2-(4-cyclobutylpiperazin-1-yl)-2-oxoethyl]piperazin-1-yl}-5-[4-(trifluoromethoxy)phenyl] pyrazine]
Ki [1]: < 1 µM

O=C(CN1CCN(c2ccc(F)c(C(F)(F)F)c2)CC1)N1CCN(C2CCCCC2)CC1 [Compound 804, 1-cyclohexyl-4-({4-[4-fluoro-3-(trifluoromethyl)phenyl]piperazin-1-yl}acetyl)piperazine]
Ki [1]: < 1 µM

Cc1ccc(F)c(-c2ccc(N3CCN(CC(=O)N4CCN(C5CCC5)CC4)CC3)cc2)c1 [Compound 705, 1-cyclobutyl-4-{[4-(2′-fluoro-5′-methylbiphenyl-4-yl)piperazin-1-yl]acetyl}piperazine]
Ki [2]: < 1 µM

O=C(CN1CCN(C(=O)C2CCCO2)CC1)N1CCN(C2CCCC2)CC1 (stereo not drawn) [Compound 841, 1-cyclopentyl-4-{[4-(tetrahydrofuran-2-ylcarbonyl)piperazin-1-yl]acetyl}piperazine]
Ki [1]: < 1 µM

COc1ccc(C(=O)NC2CCN(CC(=O)N3CCN(C4CCC4)CC3)C2)cc1 (stereo not drawn) [Compound 1237, N-{1-[2-(4-cyclobutylpiperazin-1-yl)-2-oxoethyl]pyrrolidin-3-yl}-4-methoxybenzamide]
Ki [3]: < 1 µM

COC[C@@H]1CCCN1C(=O)c1ccc(N2CCN(CC(=O)N3CCN(C4CCC4)CC3)CC2)cc1 [Compound 768, 1-cyclobutyl-4-{[4-(4-{[(2S)-2-(methoxymethyl)pyrrolidin-1-yl]carbonyl}phenyl)piperazin-1-yl]acetyl}piperazine]
Ki [2]: < 1 µM

CCC(C)N1CCN(C(=O)CN2CCN(c3ccc(F)cc3F)CC2)CC1 (stereo not drawn) [Compound 861, 1-sec-butyl-4-{[4-(2,4-difluorophenyl)piperazin-1-yl]acetyl}piperazine]
Ki [1]: < 1 µM

CCN1CCN(C(=O)CN2CCN(c3ccc(Cl)c(C)c3)CC2)CC1 [Compound 352, 1-(4-chloro-3-methylphenyl)-4-[2-(4-ethylpiperazin-1-yl)-2-oxoethyl]piperazine]
Ki [4]: < 1 µM

O=C(Cc1c(Cl)ccc(Cl)c1Cl)N1CCN(CC(=O)N2CCN(C3CCC3)CC2)CC1 [Compound 501, 1-cyclobutyl-4-({4-[(2,3,6-trichlorophenyl)acetyl]piperazin-1-yl}acetyl)piperazine]
Ki [6]: < 1 µM

Cc1cc(N2CCN(CC(=O)N3CCN(C4CCC4)CC3)CC2)ccc1Cl [Compound 349, 1-(4-chloro-3-methylphenyl)-4-[2-(4-cyclobutylpiperazin-1-yl)-2-oxoethyl]piperazine]
Ki [4]: < 1 µM

CC(Oc1ccccc1Cl)C(=O)N1CCN(CC(=O)N2CCN(C3CCC3)CC2)CC1 (stereo not drawn) [Compound 417, 1-[2-(2-chlorophenoxy)propanoyl]-4-[2-(4-cyclobutylpiperazin-1-yl)-2-oxoethyl]piperazine]
Ki [4]: < 1 µM

COc1ccc(C)cc1-c1ccc(N2CCN(CC(=O)N3CCN(C4CCC4)CC3)CC2)cc1 [Compound 710, 1-cyclobutyl-4-{[4-(2′-methoxy-5′-methylbiphenyl-4-yl)piperazin-1-yl]acetyl}piperazine]
Ki [2]: < 1 µM

CCC(C)CNC(=O)c1cccc(N2CCN(CC(=O)N3CCN(C4CCC4)CC3)CC2)c1 (stereo not drawn) [Compound 1071, 3-{4-[2-(4-cyclobutylpiperazin-1-yl)-2-oxoethyl]piperazin-1-yl}-N-(2-methylbutyl)benzamide]
Ki [5]: < 1 µM

CCN(C(=O)c1ccc(N2CCN(CC(=O)N3CCN(C4CCC4)CC3)CC2)nc1)C1CCCCC1 [Compound 1171, 6-{4-[2-(4-cyclobutylpiperazin-1-yl)-2-oxoethyl]piperazin-1-yl}-N-cyclohexyl-N-ethylnicotinamide]
Ki [3]: < 1 µM

O=C(CN1CCN(c2ccc(Cl)c(C(F)(F)F)c2)CC1)N1CCN(C2CCC2)CC1 [Compound 464, 1-[4-chloro-3-(trifluoromethyl)phenyl]-4-[2-(4-cyclobutylpiperazin-1-yl)-2-oxoethyl]piperazine]
Ki [6]: < 1 µM

CC(=O)c1cccc(-c2cnc(N3CCN(CC(=O)N4CCN(C5CCC5)CC4)CC3)cn2)c1 [Compound 454, 1-[3-(5-{4-[2-(4-cyclobutylpiperazin-1-yl)-2-oxoethyl]piperazin-1-yl}pyrazin-2-yl}phenyl]ethanone]
Ki [6]: < 1 µM

CCN1CCN(C(=O)CN2CCN(c3ccc(OC)c(OC)c3)CC2)CC1 [Compound 284, 1-(3,4-dimethoxyphenyl)-4-[2-(4-ethylpiperazin-1-yl)-2-oxoethyl]piperazine]
Ki [4]: < 1 µM

CCCN(CC1CC1)C1CCN(CC(=O)N2CCN(C3CCCCC3)CC2)CC1 [Compound 440, 1-[2-(4-cyclohexylpiperazin-1-yl)-2-oxoethyl]-N-(cyclopropylmethyl)-N-propylpiperidin-4-amine]
Ki [4]: < 1 µM
